Results from patent publication US9169254B2, “Spiroimidazolone derivative” (Chugai Seiyaku Kabushiki Kaisha, priority 2009, dated 2015).
Where a name gives a salt, the structure may show the parent alone.

Each molecule was assayed against T1, human PTH1 receptor (Homo sapiens, UniProt Q03431) (assay: In vitro cAMP signal activity in HKRK-B7 cells (LLC-PK1 cells overexpressing the human PTH1 receptor)). Conditions: HKRK-B7 cells; compound at 1×10^−3 M; […]; 0.1 µM.
T1 sequence (Q03431 27-593): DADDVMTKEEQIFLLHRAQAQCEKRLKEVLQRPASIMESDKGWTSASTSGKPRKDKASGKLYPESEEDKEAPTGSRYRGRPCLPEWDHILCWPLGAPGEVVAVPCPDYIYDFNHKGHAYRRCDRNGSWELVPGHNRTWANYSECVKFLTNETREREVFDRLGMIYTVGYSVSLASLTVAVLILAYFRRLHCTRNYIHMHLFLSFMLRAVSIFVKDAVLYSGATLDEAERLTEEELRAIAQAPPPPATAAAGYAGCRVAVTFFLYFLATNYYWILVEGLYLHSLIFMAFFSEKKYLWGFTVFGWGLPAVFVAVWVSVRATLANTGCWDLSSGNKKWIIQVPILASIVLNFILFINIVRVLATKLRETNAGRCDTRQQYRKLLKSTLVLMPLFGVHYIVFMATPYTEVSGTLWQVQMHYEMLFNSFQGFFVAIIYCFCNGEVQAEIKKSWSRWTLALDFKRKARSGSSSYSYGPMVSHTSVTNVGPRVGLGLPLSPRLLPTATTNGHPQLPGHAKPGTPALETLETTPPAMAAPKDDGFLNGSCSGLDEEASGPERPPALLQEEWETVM
Format: cell-based

In the case of O=C(Cn1ccc2c(/C=C/S(=O)(=O)N3CCC4(CC3)N=C(C3CCCCC3)NC4=O)cccc21)Nc1ccncc1 [Compound 736, 2-{4-[(E)-2-(2-Cyclohexyl-4-oxo-1,3,8-triaza-spiro[4.5]dec-1-ene-8-sulfonyl)-vinyl]-indol-1-yl}-N-pyridin-4-yl-acetamide], the “cAMP production activity (%)” value is reported as 16%.

Same assay, conditions: HKRK-B7 cells; compound at 1×10^−3 M; cAMP produced as percentage of that produced by hPTH(1-34) at 100 nM

Compared with CC(=O)N(CCO)c1cc(C)c(/C=C/S(=O)(=O)N2CCC3(CC2)N=C(c2ccc(F)c(C(F)(F)F)c2)NC3=O)c(C)c1 [Compound 718, N-(4-{(E)-2-[2-(4-Fluoro-3-trifluoromethyl-phenyl)-4-oxo-1,3,8-triaza-spiro[4.5]dec-1-ene-8-sulfonyl]-vinyl}-3,5-dimethyl-phenyl)-N-(2-hydroxy-ethyl)-acetamide], CC(=O)N(CCO)c1ccc(CCS(=O)(=O)N2CCC3(CC2)N=C(c2ccc(F)c(C(F)(F)F)c2)NC3=O)c(C)c1 [Compound 721, N-(4-{2-[2-(4-Fluoro-3-trifluoromethyl-phenyl)-4-oxo-1,3,8-triaza-spiro[4.5]dec-1-ene-8-sulfonyl]-ethyl}-3-methyl-phenyl)-N-(2-hydroxy-ethyl)-acetamide] is higher in “cAMP production activity (%)” value: 74% for the first, 92% for the second.

Compared with Cc1cc(N(CCO)S(C)(=O)=O)ccc1/C=C/S(=O)(=O)N1CCC2(CC1)N=C(c1cccc(OC(F)(F)F)c1)NC2=O [Compound 719, N-(2-Hydroxy-ethyl)-N-(3-methyl-4-{(E)-2-[4-oxo-2-(3-trifluoromethoxy-phenyl)-1,3,8-triaza-spiro[4.5]dec-1-ene-8-sulfonyl]-vinyl}-phenyl)-methanesulfonamide], Cc1cc(N(CCO)C(=O)CO)ccc1/C=C/S(=O)(=O)N1CCC2(CC1)N=C(c1cccc(OC(F)(F)F)c1)NC2=O [Compound 722, 2-Hydroxy-N-(2-hydroxy-ethyl)-N-(3-methyl-4-{(E)-2-[4-oxo-2-(3-trifluoromethoxy-phenyl)-1,3,8-triaza-spiro[4.5]dec-1-ene-8-sulfonyl]-vinyl}-phenyl)-acetamide] is lower in “cAMP production activity (%)” value: 77% for the first, 60% for the second.

First: CCCCCCCCCC1=NC2(CCN(S(=O)(=O)CCc3ccc(N(CCO)S(C)(=O)=O)cc3C)CC2)C(=O)N1 [Compound 720, N-(2-Hydroxy-ethyl)-N-{3-methyl-4-[2-(2-nonyl-4-oxo-1,3,8-triaza-spiro[4.5]dec-1-ene-8-sulfonyl)-ethyl]-phenyl}-methanesulfonamide]
Second: CCC1CCC(C2=NC3(CCN(S(=O)(=O)CCc4c(C)cc(N(C)C(N)=O)cc4C)CC3)C(=O)N2)CC1 (centres unmarked) [Compound 732, 1-(4-{2-[2-(4-Ethyl-cyclohexyl)-4-oxo-1,3,8-triaza-spiro[4.5]dec-1-ene-8-sulfonyl]-ethyl}-3,5-dimethyl-phenyl)-1-methyl-urea]
The “cAMP production activity (%)” value of the first is higher: 82% for the first, 45% for the second.

First: Cc1cc(N(C)C(N)=O)cc(C)c1/C=C/S(=O)(=O)N1CCC2(CC1)N=C(C1CCC(CCC(F)(F)F)CC1)NC2=O (centres unmarked) [Compound 723, 1-[3,5-Dimethyl-4-((E)-2-{4-oxo-2-[4-(3,3,3-trifluoro-propyl)-cyclohexyl]-1,3,8-triaza-spiro[4.5]dec-1-ene-8-sulfonyl}-vinyl)-phenyl]-1-methyl-urea]
Second: COCCN(C(N)=O)c1cc(C)c(/C=C/S(=O)(=O)N2CCC3(CC2)N=C(C2CCC(CCC(F)(F)F)CC2)NC3=O)c(C)c1 (centres unmarked) [Compound 725, 1-[3,5-dimethyl-4-((E)-2-{4-oxo-2-[4-(3,3,3-trifluoro-propyl)-cyclohexyl]-1,3,8-triaza-spiro[4.5]dec-1-ene-8-sulfonyl}-vinyl)-phenyl]-1-(2-methoxy-ethyl)-urea]
The “cAMP production activity (%)” value of the first is higher: 95% for the first, 58% for the second.

Compared with Cc1cc(N(CCOCCO)C(N)=O)cc(C)c1/C=C/S(=O)(=O)N1CCC2(CC1)N=C(C1CCC(CCC(F)(F)F)CC1)NC2=O (centres unmarked) [Compound 724, 1-[3,5-Dimethyl-4-((E)-2-{4-oxo-2-[4-(3,3,3-trifluoro-propyl)-cyclohexyl]-1,3,8-triaza-spiro[4.5]dec-1-ene-8-sulfonyl}-vinyl)-phenyl]-1-[2-(2-hydroxy-ethoxy)-ethyl]-urea], Cc1cc(N(C[C@H](O)CO)C(N)=O)cc(C)c1/C=C/S(=O)(=O)N1CCC2(CC1)N=C(C1CCC(C)CC1)NC2=O (stereo partly drawn) [Compound 733, 1-((S)-2,3-Dihydroxy-propyl)-1-(3,5-dimethyl-4-{(E)-2-[2-(4-methyl-cyclohexyl)-4-oxo-1,3,8-triaza-spiro[4.5]dec-1-ene-8-sulfonyl]-vinyl}-phenyl)-urea] is higher in “cAMP production activity (%)” value: 74% for the first, 104% for the second.

Compared with Cc1cc(N(C(N)=O)C(C)C)cc(C)c1/C=C/S(=O)(=O)N1CCC2(CC1)N=C(C1CCC(C)CC1)NC2=O (centres unmarked) [Compound 726, 1-(3,5-Dimethyl-4-{(E)-2-[2-(4-methyl-cyclohexyl)-4-oxo-1,3,8-triaza-spiro[4.5]dec-1-ene-8-sulfonyl]-vinyl}-phenyl)-1-isopropyl-urea], COc1cc(N(C)C(N)=O)cc(C)c1/C=C/S(=O)(=O)N1CCC2(CC1)N=C(C1CCC(C)CC1)NC2=O (centres unmarked) [Compound 728, 1-(3-Methoxy-5-methyl-4-{(E)-2-[2-(4-methyl-cyclohexyl)-4-oxo-1,3,8-triaza-spiro[4.5]dec-1-ene-8-sulfonyl]-vinyl}-phenyl)-1-methyl-urea] is higher in “cAMP production activity (%)” value: 75% for the first, 87% for the second.

Compared with CCc1cc(N(C)C(N)=O)ccc1/C=C/S(=O)(=O)N1CCC2(CC1)N=C(C1CCC(C)CC1)NC2=O (centres unmarked) [Compound 727, 1-(3-ethyl-4-{(E)-2-[2-(4-methyl-cyclohexyl)-4-oxo-1,3,8-triaza-spiro[4.5]dec-1-ene-8-sulfonyl]-vinyl}-phenyl)-1-methyl-urea], Cc1cc(CC(N)=O)ccc1/C=C/S(=O)(=O)N1CCC2(CC1)N=C(C1CCC(C)CC1)NC2=O (centres unmarked) [Compound 737, 2-(3-Methyl-4-{(E)-2-[2-(4-methyl-cyclohexyl)-4-oxo-1,3,8-triaza-spiro[4.5]dec-1-ene-8-sulfonyl]-vinyl}-phenyl)-acetamide] is higher in “cAMP production activity (%)” value: 52% for the first, 96% for the second.

Going from Cc1cc(N(CC#N)C(N)=O)ccc1/C=C/S(=O)(=O)N1CCC2(CC1)N=C(c1cccc(OC(F)(F)F)c1)NC2=O [Compound 729, 1-Cyanomethyl-1-(3-methyl-4-{(E)-2-[4-oxo-2-(3-trifluoromethoxy-phenyl)-1,3,8-triaza-spiro[4.5]dec-1-ene-8-sulfonyl]-vinyl}-phenyl)-urea] to Cc1cc(N(CC(F)(F)F)C(N)=O)ccc1/C=C/S(=O)(=O)N1CCC2(CC1)N=C(c1cccc(OC(F)(F)F)c1)NC2=O [Compound 731, 1-(3-Methyl-4-{(E)-2-[4-oxo-2-(3-trifluoromethoxy-phenyl)-1,3,8-triaza-spiro[4.5]dec-1-ene-8-sulfonyl]-vinyl}-phenyl)-1-(2,2,2-trifluoro-ethyl)-urea], the “cAMP production activity (%)” value rises from 45% to 54%.

First: Cc1cc(N(C(N)=O)C2CCCC2)ccc1/C=C/S(=O)(=O)N1CCC2(CC1)N=C(c1cccc(OC(F)(F)F)c1)NC2=O [Compound 730, 1-cyclopentyl-1-(3-methyl-4-{(E)-2-[4-oxo-2-(3-trifluoromethoxy-phenyl)-1,3,8-triaza-spiro[4.5]dec-1-ene-8-sulfonyl]-vinyl}-phenyl)-urea]
Second: CC(=O)N(c1ccc(/C=C/S(=O)(=O)N2CCC3(CC2)N=C(C2CCCCC2)NC3=O)c(C)c1)C1CCCC1 [Compound 734, N-{4-[(E)-2-(2-Cyclohexyl-4-oxo-1,3,8-triaza-spiro[4.5]dec-1-ene-8-sulfonyl)-vinyl]-3-methyl-phenyl}-N-cyclopentyl-acetamide trifluoroacetate]
The “cAMP production activity (%)” value of the first is higher: 74% for the first, 47% for the second.

Compared with Cc1cc(NC(=O)[C@@H](N)C(C)C)cc(C)c1/C=C/S(=O)(=O)N1CCC2(CC1)N=C(C1CCCCC1)NC2=O [Compound 735, (S)-2-Amino-N-{4-[(E)-2-(2-cyclohexyl-4-oxo-1,3,8-triaza-spiro[4.5]dec-1-ene-8-sulfonyl)-vinyl]-3,5-dimethyl-phenyl}-3-methyl-butylamide], Cc1cc(NC2=NCCS2)cc(C)c1/C=C/S(=O)(=O)N1CCC2(CC1)N=C(C1CCCCC1)NC2=O [Compound 738, 2-Cyclohexyl-8-{(E)-2-[4-(4,5-dihydro-thiazol-2-ylamino)-2,6-dimethyl-phenyl]-ethenesulfonyl}-1,3,8-triaza-spiro[4.5]dec-1-en-4-one] is higher in “cAMP production activity (%)” value: 32% for the first, 79% for the second.

Compared with Cc1cc(OCC2(C)COC2)ccc1/C=C/S(=O)(=O)N1CCC2(CC1)N=C(C1CCCCC1)NC2=O [Compound 739, 2-Cyclohexyl-8-{(E)-2-[2-methyl-4-(3-methyl-oxetan-3-ylmethoxy)-phenyl]-ethenesulfonyl}-1,3,8-triaza-spiro[4.5]dec-1-en-4-one], Cc1cc(N(C)C(N)=O)cc(C)c1C1CC1S(=O)(=O)N1CCC2(CC1)N=C(C1CCC(C)CC1)NC2=O (centres unmarked) [Compound 740, 1-(3,5-Dimethyl-4-{2-[2-(4-methyl-cyclohexyl)-4-oxo-1,3,8-triaza-spiro[4.5]dec-1-ene-8-sulfonyl]-cyclopropyl}-phenyl)-1-methyl-urea] is higher in “cAMP production activity (%)” value: 47% for the first, 123% for the second.
